Data: PubChem BioAssay (NCI)
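Cells were grown in 96-well plates and exposed to each compound for 48 hours at five concentrations; endpoints were interpolated linearly between bracketing concentrations, or set to the highest concentration if not reached. Here, GI50 denotes the concentration required for 50% inhibition of growth. TGI: total growth inhibition.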

Assays:
Experiment in all cases: growth of human tumour cells (NCI), 48 h
SF-539 CNS = system: SF-539 CNS
DU-145 prostate = system: DU-145 prostate
RXF 393 renal = system: RXF 393 renal
IGROV1 ovarian = system: IGROV1 ovarian
EKVX NSCLC = system: EKVX NSCLC
786-0 renal = system: 786-0 renal
MOLT-4 leukemia = system: MOLT-4 leukemia
HCC-2998 colon = system: HCC-2998 colon
A549 NSCLC = system: A549 NSCLC
SR leukemia = system: SR leukemia
MDA-MB-231 breast = system: MDA-MB-231 breast
MCF7 breast = system: MCF7 breast
BT-549 breast = system: BT-549 breast
HL-60(TB) leukemia = system: HL-60(TB) leukemia
HOP-62 NSCLC = system: HOP-62 NSCLC
SW-620 colon = system: SW-620 colon
HT29 colon = system: HT29 colon
SK-MEL-28 melanoma = system: SK-MEL-28 melanoma
T-47D breast = system: T-47D breast
OVCAR-8 ovarian = system: OVCAR-8 ovarian
HOP-92 NSCLC = system: HOP-92 NSCLC
NCI-H522 lung = system: NCI-H522 lung
UO-31 renal = system: UO-31 renal
KM12 colon = system: KM12 colon
HCT-116 colon = system: HCT-116 colon
HCT-15 colon = system: HCT-15 colon
OVCAR-3 ovarian = system: OVCAR-3 ovarian
NCI-H226 lung = system: NCI-H226 lung
NCI/ADR-RES ovarian = system: NCI/ADR-RES ovarian
RPMI-8226 leukemia = system: RPMI-8226 leukemia
SNB-19 CNS = system: SNB-19 CNS
K-562 leukemia = system: K-562 leukemia
TK-10 renal = system: TK-10 renal
COLO 205 colon = system: COLO 205 colon
UACC-62 melanoma = system: UACC-62 melanoma
SK-MEL-5 melanoma = system: SK-MEL-5 melanoma
CCRF-CEM leukemia = system: CCRF-CEM leukemia
SF-295 CNS = system: SF-295 CNS
CAKI-1 renal = system: CAKI-1 renal
HS 578T breast = system: HS 578T breast
SK-OV-3 ovarian = system: SK-OV-3 ovarian
SF-268 CNS = system: SF-268 CNS
PC-3 prostate = system: PC-3 prostate
A498 renal = system: A498 renal
U251 CNS = system: U251 CNS
OVCAR-5 ovarian = system: OVCAR-5 ovarian
NCI-H460 lung = system: NCI-H460 lung
OVCAR-4 ovarian = system: OVCAR-4 ovarian
LOX IMVI melanoma = system: LOX IMVI melanoma
UACC-257 melanoma = system: UACC-257 melanoma
SNB-75 CNS = system: SNB-75 CNS
SK-MEL-2 melanoma = system: SK-MEL-2 melanoma
M14 melanoma = system: M14 melanoma
MALME-3M melanoma = system: MALME-3M melanoma
SN12C renal = system: SN12C renal
ACHN renal = system: ACHN renal
MDA-MB-435 = system: MDA-MB-435
NCI-H23 lung = system: NCI-H23 lung

## Cc1nn(CCO)c(C)c1N=[N+]([O-])c1c(C)nn(CCO)c1C
SF-539 CNS
  GI50: 2.13 µM
  TGI: 5.51 µM
DU-145 prostate
  GI50: 2.92 µM
  TGI: 7.88 µM
RXF 393 renal
  GI50: 1.74 µM
  TGI: 3.73 µM
IGROV1 ovarian
  GI50: 4.8 µM
  TGI: 21.8 µM
EKVX NSCLC
  GI50: 5.62 µM
  TGI: 20.6 µM
786-0 renal
  GI50: 10.1 µM
  TGI: 41.5 µM
MOLT-4 leukemia
  GI50: 8.47 µM
  TGI: 33.3 µM
HCC-2998 colon
  GI50: 13.7 µM
  TGI: 27.2 µM
A549 NSCLC
  GI50: 14.8 µM
  TGI: 36.2 µM
SR leukemia
  GI50: 1.8 µM
  TGI: 6.86 µM
MDA-MB-231 breast
  GI50: 13.5 µM
  TGI: 28.8 µM
MCF7 breast
  GI50: 2.64 µM
  TGI: 8.36 µM
BT-549 breast
  GI50: 2.13 µM
  TGI: 6.48 µM
HL-60(TB) leukemia
  GI50: 2.5 µM
  TGI: 9.3 µM
HOP-62 NSCLC
  GI50: 20.4 µM
  TGI: > 57.9 µM
SW-620 colon
  GI50: 1.45 µM
  TGI: 3.09 µM
HT29 colon
  GI50: 3.59 µM
  TGI: 13.7 µM
SK-MEL-28 melanoma
  GI50: 2.84 µM
  TGI: 7.19 µM
T-47D breast
  GI50: 1.7 µM
  TGI: 4.51 µM
OVCAR-8 ovarian
  GI50: 2.19 µM
  TGI: 4.54 µM
HOP-92 NSCLC
  GI50: 1.83 µM
  TGI: 7.19 µM
NCI-H522 lung
  GI50: 1.03 µM
  TGI: 2.88 µM
UO-31 renal
  GI50: 0.754 µM
  TGI: 2.15 µM
KM12 colon
  GI50: 12.6 µM
  TGI: 26 µM
HCT-116 colon
  GI50: 2.12 µM
HCT-15 colon
  GI50: 2.4 µM
  TGI: 6.5 µM
OVCAR-3 ovarian
  GI50: 1.92 µM
  TGI: 3.65 µM
NCI-H226 lung
  GI50: 16.1 µM
  TGI: 37 µM
NCI/ADR-RES ovarian
  GI50: 11.8 µM
  TGI: 39 µM
RPMI-8226 leukemia
  GI50: 3.64 µM
  TGI: 14.8 µM
SNB-19 CNS
  GI50: 16.6 µM
  TGI: 32.1 µM
K-562 leukemia
  GI50: 2.19 µM
  TGI: 7.13 µM
TK-10 renal
  GI50: 1.64 µM
  TGI: 3.43 µM
COLO 205 colon
  GI50: 0.296 µM
  TGI: 0.802 µM
UACC-62 melanoma
  GI50: 8.48 µM
  TGI: 22.2 µM
SK-MEL-5 melanoma
  GI50: 11 µM
  TGI: 23.3 µM
CCRF-CEM leukemia
  GI50: 3.53 µM
  TGI: 33.5 µM
SF-295 CNS
  GI50: 15.3 µM
  TGI: 30 µM
CAKI-1 renal
  GI50: 1.51 µM
  TGI: 3.33 µM
HS 578T breast
  GI50: 17.6 µM
  TGI: 53.1 µM
SK-OV-3 ovarian
  GI50: 16.3 µM
  TGI: 30.5 µM
SF-268 CNS
  GI50: 15.6 µM
  TGI: 31.2 µM
PC-3 prostate
  GI50: 4.99 µM
  TGI: 20.9 µM
A498 renal
  GI50: 15.9 µM
  TGI: 29.8 µM
U251 CNS
  GI50: 7.42 µM
  TGI: 20.6 µM
OVCAR-5 ovarian
  GI50: 11.3 µM
  TGI: 24.2 µM
NCI-H460 lung
  GI50: 17.8 µM
  TGI: 37.8 µM
OVCAR-4 ovarian
  GI50: 5.88 µM
  TGI: 15.8 µM
LOX IMVI melanoma
  GI50: 3 µM
  TGI: 7.69 µM
UACC-257 melanoma
  GI50: 1.69 µM
  TGI: 3.5 µM
SNB-75 CNS
  GI50: 13.1 µM
  TGI: 25.9 µM
SK-MEL-2 melanoma
  GI50: 5.79 µM
  TGI: 40.9 µM
M14 melanoma
  GI50: 1.88 µM
  TGI: > 19.7 µM
MALME-3M melanoma
  GI50: 0.723 µM
  TGI: 2.4 µM
SN12C renal
  GI50: 6.3 µM
  TGI: 23 µM
ACHN renal
  GI50: 1.36 µM
  TGI: 2.91 µM
MDA-MB-435
  GI50: 1.59 µM
  TGI: 3.53 µM
NCI-H23 lung
  GI50: 4.95 µM
  TGI: 10.6 µM
